Experiment: Displacement of [3H]-Astemizole from human ERG

IC50: > 1000 µM
Structure (SMILES): C[C@@H](OC(=O)N1CCC(O[C@H]2CC[C@H](Oc3cnc(S(C)(=O)=O)cn3)CC2)CC1)C(F)(F)F
